These results are taken from US10770169B2, “Method of providing a treatment to a subject based on a dynamic pathway map” (THE REGENTS OF THE UNIVERSITY OF CALIFORNIA, priority 2010, dated 2020).

Where two headings read alike, the source gives them in different places.

Assay [1] has as its system TCR-activated CD4(+) T cells. To be noted: cited from earlier work.
Assay [2] relates to luminal, basal, claudin-low and ERBB2AMP breast cancer cell lines. Kind of assay: Associations of clinically relevant subtypes and response (non-parametric ANOVA or t-test on GI50 ranks). As to conditions: for Subtype specificity: Table 6, most sensitive subtype, FDR p<0.20. The format is cell-based, human. The method in brief:
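Significance was set at FDR p<0.20 after combining p-values across three test sets. Subtype–response associations came from rank-based non-parametric ANOVA or t-tests on GI50. For three-class comparisons, post-hoc tests of each group against the rest identified the most sensitive group, with FDR correction.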

Assay [3] concerns panel of 55 breast cancer cell lines. The experiment in a line: Cell growth inhibition assay (Cell Titer Glo, 72 h, 9 doses; GI50, TGI, LC50). The format is cell-based, human.
A further assay concerns breast cancer cell lines. Kind of assay: Association of growth rate and response (2-way ANCOVA). The format is cell-based, human. The text has this:
To assess the effects of cell line class and growth rate on drug sensitivity, we performed a set of 2-way Analysis of Covariance (ANCOVA) tests, one for each of the three cell line classification schemes described above. […] We performed these analyses in R with the functions lm and ANOVA, which is available as part of the car package.

Turning to `Cc1ccc(NC(=O)c2ccc(CN3CCN(C)CC3)cc2)cc1Nc1nccc(-c2cccnc2)n1` [imatinib], in assay [1], the interferon-gamma production entry was “inhibit interferon-gamma production”.

For the compound `Cc1cc(C(C)Nc2ccccc2)c2nc(N3CCOCC3)cc(=O)n2c1` (stereo not drawn) [TGX-221], in assay [2], the Subtype specificity result is on record as “Luminal”. Besides, the GI50 in assay [3] (600MPE cell line, censored GI50 values, value is the negative log10 of mol/L) was 5.09; in assay [3] (AU565 cell line, censored GI50 values, value is the negative log10 of mol/L), 5.18; in assay [3] (BT20 cell line, censored GI50 values, value is the negative log10 of mol/L), 4.77; in assay [3] (BT474 cell line, censored GI50 values, value is the negative log10 of mol/L), 5.10; in assay [3] (BT483 cell line, censored GI50 values, value is the negative log10 of mol/L), 5.37; in assay [3] (CAMA1 cell line, censored GI50 values, value is the negative log10 of mol/L) it was 5.10. Further, the GI50 came to 5.11 in assay [3] (HCC38 cell line, censored GI50 values, value is the negative log10 of mol/L); 5.98 in assay [3] (HCC70 cell line, censored GI50 values, value is the negative log10 of mol/L); 5.20 in assay [3] (HCC202 cell line, censored GI50 values, value is the negative log10 of mol/L); 5.48 in assay [3] (HCC1187 cell line, censored GI50 values, value is the negative log10 of mol/L); 5.13 in assay [3] (HCC1395 cell line, censored GI50 values, value is the negative log10 of mol/L); 5.16 in assay [3] (HCC1419 cell line, censored GI50 values, value is the negative log10 of mol/L). Also, the GI50 was 4.77 in assay [3] (HCC1428 cell line, censored GI50 values, value is the negative log10 of mol/L); 4.79 in assay [3] (HCC1954 cell line, censored GI50 values, value is the negative log10 of mol/L); 4.38 in assay [3] (HCC3153 cell line, censored GI50 values, value is the negative log10 of mol/L); 4.78 in assay [3] (LY2 cell line, censored GI50 values, value is the negative log10 of mol/L); 4.78 in assay [3] (MDAMB134VI cell line, censored GI50 values, value is the negative log10 of mol/L); 4.61 in assay [3] (MDAMB231 cell line, censored GI50 values, value is the negative log10 of mol/L). The GI50 in assay [3] (MDAMB361 cell line, censored GI50 values, value is the negative log10 of mol/L) is given as 4.75; in assay [3] (MDAMB436 cell line, censored GI50 values, value is the negative log10 of mol/L), 4.72; in assay [3] (MDAMB453 cell line, censored GI50 values, value is the negative log10 of mol/L), 4.81; in assay [3] (MDAMB468 cell line, censored GI50 values, value is the negative log10 of mol/L), 6.27; in assay [3] (SKBR3 cell line, censored GI50 values, value is the negative log10 of mol/L), 5.33; in assay [3] (SUM159PT cell line, censored GI50 values, value is the negative log10 of mol/L), 4.49. Besides, the GI50 in assay [3] (SUM1315MO2 cell line, censored GI50 values, value is the negative log10 of mol/L) is 5.04; in assay [3] (cell line 600MPE, value is the negative log10 of mol/L), 5.09; in assay [3] (cell line AU565, value is the negative log10 of mol/L) it was 5.18; in assay [3] (cell line BT20, value is the negative log10 of mol/L), 4.77.

In the case of `COc1cc2ncnc(Nc3ccc(F)c(Cl)c3)c2cc1OCCCN1CCOCC1` [Gefitinib], in assay [2], the “association of response with ERBB2 amplification” value was “positively associated with ERBB2 amplification”. The Subtype specificity result in assay [2] is “ERBB2AMP”. The GI50 in assay [3] (Homo sapiens, AU565, cell line AU565, read-out: GI50 (converted)) was 1.07 µM; in assay [3] (Homo sapiens, BT-474, cell line BT474, read-out: GI50 (converted)), 0.724 µM; in assay [3] (Homo sapiens, BT-483, cell line BT483, read-out: GI50 (converted)) it was 6.17 µM; in assay [3] (Homo sapiens, BT-549, cell line BT549, read-out: GI50 (converted)) it was 15.1 µM; in assay [3] (Homo sapiens, CAMA-1, cell line CAMA1, read-out: GI50 (converted)), 26.9 µM; in assay [3] (Homo sapiens, HCC38, cell line HCC38, read-out: GI50 (converted)), 28.2 µM. Also, the GI50 in assay [3] (Homo sapiens, HCC70, cell line HCC70, read-out: GI50 (converted)) was 17.4 µM; in assay [3] (Homo sapiens, HCC1143, cell line HCC1143, read-out: GI50 (converted)) it was 11.7 µM; in assay [3] (Homo sapiens, HCC1187, cell line HCC1187, read-out: GI50 (converted)), 30.2 µM; in assay [3] (Homo sapiens, HCC1395, cell line HCC1395, read-out: GI50 (converted)) it was 7.08 µM; in assay [3] (Homo sapiens, HCC1419, cell line HCC1419, read-out: GI50 (converted)), 2.75 µM; in assay [3] (Homo sapiens, HCC1428, cell line HCC1428, read-out: GI50 (converted)) it was 10.7 µM. For the same compound, the GI50 was 8.13 µM in assay [3] (Homo sapiens, HCC1500, cell line HCC1500, read-out: GI50 (converted)); 4.68 µM in assay [3] (Homo sapiens, HCC1806, cell line HCC1806, read-out: GI50 (converted)); 8.32 µM in assay [3] (Homo sapiens, HCC1937, cell line HCC1937, read-out: GI50 (converted)); 2.04 µM in assay [3] (Homo sapiens, HCC1954, cell line HCC1954, read-out: GI50 (converted)); 26.9 µM in assay [3] (Homo sapiens, MCF7, cell line MCF7, read-out: GI50 (converted)); 15.1 µM in assay [3] (Homo sapiens, MDA-MB-157, cell line MDAMB157, read-out: GI50 (converted)). Further, the GI50 in assay [3] (Homo sapiens, MDA-MB-231, cell line MDAMB231, read-out: GI50 (converted)) is 33.1 µM; in assay [3] (Homo sapiens, MDA-MB-361, cell line MDAMB361, read-out: GI50 (converted)), 6.46 µM; in assay [3] (Homo sapiens, MDA-MB-415, cell line MDAMB415, read-out: GI50 (converted)) it was 7.41 µM; in assay [3] (Homo sapiens, MDA-MB-436, cell line MDAMB436, read-out: GI50 (converted)), 33.1 µM; in assay [3] (Homo sapiens, MDA-MB-453, cell line MDAMB453, read-out: GI50 (converted)) it was 7.41 µM; in assay [3] (Homo sapiens, MDA-MB-468, cell line MDAMB468, read-out: GI50 (converted)), 25.1 µM. In addition, the GI50 is 2.82 µM in assay [3] (Homo sapiens, SK-BR-3, cell line SKBR3, read-out: GI50 (converted)); 7.94 µM in assay [3] (Homo sapiens, SUM52PE, cell line SUM52PE, read-out: GI50 (converted)); 2.88 µM in assay [3] (Homo sapiens, SUM149PT, cell line SUM149PT, read-out: GI50 (converted)); 20.9 µM in assay [3] (Homo sapiens, SUM185PE, cell line SUM185PE, read-out: GI50 (converted)); 8.51 µM in assay [3] (Homo sapiens, SUM-159-PT, cell line SUM159PT, read-out: GI50 (converted)); 15.8 µM in assay [3] (Homo sapiens, T47D, cell line T47D, read-out: GI50 (converted)). In addition, the GI50 in assay [3] (Homo sapiens, UACC-893, cell line UACC893, read-out: GI50 (converted)) is 1.15 µM; in assay [3] (Homo sapiens, ZR-75-1, cell line ZR751, read-out: GI50 (converted)), 32.4 µM; in assay [3] (Homo sapiens, ZR-75B, cell line ZR75B, read-out: GI50 (converted)) it was 21.4 µM; in assay [3] (Homo sapiens, cell line 600MPE, read-out: GI50 (converted)), 7.24 µM; in assay [3] (Homo sapiens, cell line HCC2185, read-out: GI50 (converted)) it was 9.33 µM; in assay [3] (Homo sapiens, cell line HCC3153, read-out: GI50 (converted)), 33.1 µM. Also, the GI50 in assay [3] (Homo sapiens, cell line LY2, read-out: GI50 (converted)) was 27.5 µM; in assay [3] (Homo sapiens, cell line MDAMB134V, read-out: GI50 (converted)), 30.2 µM; in assay [3] (Homo sapiens, cell line MDAMB175V, read-out: GI50 (converted)), 0.209 µM; in assay [3] (Homo sapiens, cell line SUM1315MO, read-out: GI50 (converted)) it was 2.95 µM.

As to `O=c1[nH]cc(F)c(=O)[nH]1` [5-FU, 5-florouracil], the “significance of subtype and doubling time in ANCOVA model” value in the assay with breast cancer cell lines (listed as 5-florouracil) is “not significant in the subtype test alone but showed strong significance in the ANCOVA model for both class and doubling time”; in the assay with breast cancer cell lines (listed as 5′FU), “strong effects of both subtype and growth rate on response”. In addition, the “response as a function of doubling time” value in the assay on breast cancer cell lines (luminal and basal cell lines) is “decreased as doubling time increased in both luminal and basal cell lines”.
